Test results published in US20120245159A1, “COMPOSITION AND METHOD FOR CONTROLLING ARTHROPOD PESTS” (SUMITOMO CHEMICAL COMPANY, LIMITED, priority 2009, published 2012).

How the values were obtained:
Format in all cases: in vivo
[1] = tested on: cotton aphid (Aphis gossypii); assay: Test Example 1: pesticidal effect against cotton aphid by spray treatment (cucumber leaf disk, control value); conditions: composition of the compound and clothianidin; spray over cucumber leaf disk, 25° C., 5 days; summary of Table 43
Procedure: A commercially available clothianidin water-soluble agent, manufactured by Sumitomo Chemical Co., Ltd. under the product name of Dantotsu (registered trademark) water-soluble agent, as the neonicotinoide compound was diluted with water. […] In a well of 24-well plate containing agar, a cucumber leaf disk was put on the agar and about 15 cotton aphids (Aphis gossypii) were released on the leaf disk. The test chemical solution (20 μl/well) was sprayed over the leaf disk, followed by storage in a constant-temperature breeding room at 25° C. for 5 days, and then the number of surviving aphids was checked. A control value (%) was calculated by the following equation. […] wherein symbols represents the following meanings. Cb: Number of bugs in non-treated group before treatment Cai: Number of bugs in a non-treated group on observation Tb: Number of bugs in treated group before treatment Tai: Number of bugs in treated group on observation

[2] = tested on: brown planthopper (Nilaparvata lugens); assay: Test Example 2: pesticidal effect against brown planthopper by foliage spray treatment of rice (control value); conditions: foliage spray of rice seedlings, third-instar larvae, after 5 days
[3] = tested on: cotton aphid (Aphis gossypii); assay: Test Example 3: pesticidal effect against cotton aphid by spray treatment (cucumber leaf disk, control value); conditions: composition of the compound and clothianidin; spray over cucumber leaf disk, 25° C., 5 days; summary of Table 49
[4] = tested on: brown planthopper (Nilaparvata lugens); assay: Test Example 4: pesticidal effect against brown planthopper by foliage spray treatment of rice (control value); conditions: foliage spray of rice seedlings, third-instar larvae, after 5 days
[5] = composition of the compound and clothianidin, summary of Table 44
[6] = composition of the compound and dinotefuran, summary of Table 48
[7] = composition of the compound and imidacloprid, summary of Table 47
[8] = composition of the compound and nitenpyram, summary of Table 45
[9] = composition of the compound and thiamethoxam, summary of Table 46

FC(F)(F)c1ccc2oc(-c3ccncc3)nc2c1 [Compound 13, 2-(pyridin-4-yl)-5-(trifluoromethyl)benzoxazole]
pesticidal efficacy against cotton aphid (Aphis gossypii) [1]: high pesticidal efficacy

FC(F)(F)c1ccc2oc(-c3ccncc3Cl)nc2c1 [Compound 18, 2-(3-chloropyridin-4-yl)-5-(trifluoromethyl)benzoxazole]
pesticidal efficacy against cotton aphid (Aphis gossypii) [1]: high pesticidal efficacy | pesticidal efficacy against brown planthopper (Nilaparvata lugens) [2, 5]: high pesticidal efficacy | pesticidal efficacy against brown planthopper (Nilaparvata lugens) [2, 6]: high pesticidal efficacy | pesticidal efficacy against brown planthopper (Nilaparvata lugens) [2, 7]: high pesticidal efficacy | pesticidal efficacy against brown planthopper (Nilaparvata lugens) [2, 8]: high pesticidal efficacy | pesticidal efficacy against brown planthopper (Nilaparvata lugens) [2, 9]: high pesticidal efficacy

Cc1c[n+]([O-])ccc1-c1nc2cc(C(F)(F)F)ccc2o1 [Compound 24, 3-methyl-4-[5-(trifluoromethyl)benzoxazole-2-yl]pyridine N-oxide]
pesticidal efficacy against cotton aphid (Aphis gossypii) [1]: high pesticidal efficacy

CCc1cnccc1-c1nc2cc(C(F)(F)F)ccc2o1 [Compound 35, 2-(3-ethylpyridin-4-yl)-5-(trifluoromethyl)benzoxazole]
pesticidal efficacy against cotton aphid (Aphis gossypii) [1]: high pesticidal efficacy

FC(F)(F)COc1cnccc1-c1nc2cc(C(F)(F)F)ccc2o1 [Compound 39, 2-[3-(2,2,2-trifluoroethyl)oxypyridin-4-yl]-5-(trifluoromethyl)benzoxazole]
pesticidal efficacy against cotton aphid (Aphis gossypii) [3]: high pesticidal efficacy | pesticidal efficacy against brown planthopper (Nilaparvata lugens) ([4]; composition of the compound and clothianidin, summary of Table 50): high pesticidal efficacy | pesticidal efficacy against brown planthopper (Nilaparvata lugens) ([4]; composition of the compound and dinotefuran, summary of Table 54): high pesticidal efficacy | pesticidal efficacy against brown planthopper (Nilaparvata lugens) ([4]; composition of the compound and imidacloprid, summary of Table 53): high pesticidal efficacy | pesticidal efficacy against brown planthopper (Nilaparvata lugens) ([4]; composition of the compound and nitenpyram, summary of Table 51): high pesticidal efficacy | pesticidal efficacy against brown planthopper (Nilaparvata lugens) ([4]; composition of the compound and thiamethoxam, summary of Table 52): high pesticidal efficacy

CSc1cnccc1-c1nc2cc(C(F)(F)F)ccc2o1 [Compound 40, 2-[3-(methylthio)pyridin-4-yl]-5-(trifluoromethyl)benzoxazole]
pesticidal efficacy against cotton aphid (Aphis gossypii) [1]: high pesticidal efficacy

FC(F)(F)C(F)(F)c1ccc2oc(-c3ccncc3)nc2c1 [Compound 65, 5-(pentafluoroethyl)-2-(pyridin-4-yl)-benzoxazole]
pesticidal efficacy against cotton aphid (Aphis gossypii) [1]: high pesticidal efficacy

CC(C)Oc1cnccc1-c1nc2cc(C(F)(F)F)ccc2o1 [Compound 70, 2-(3-isopropoxypyridin-4-yl)-5-(trifluoromethyl)benzoxazole]
pesticidal efficacy against cotton aphid (Aphis gossypii) [1]: high pesticidal efficacy | pesticidal efficacy against brown planthopper (Nilaparvata lugens) [2, 5]: high pesticidal efficacy | pesticidal efficacy against brown planthopper (Nilaparvata lugens) [2, 6]: high pesticidal efficacy | pesticidal efficacy against brown planthopper (Nilaparvata lugens) [2, 7]: high pesticidal efficacy | pesticidal efficacy against brown planthopper (Nilaparvata lugens) [2, 8]: high pesticidal efficacy | pesticidal efficacy against brown planthopper (Nilaparvata lugens) [2, 9]: high pesticidal efficacy

FC(F)(F)Sc1ccc2oc(-c3ccncc3Cl)nc2c1 [Compound 77, 2-(3-chloropyridin-4-yl)-5-(trifluoromethylthio)benzoxazole]
pesticidal efficacy against cotton aphid (Aphis gossypii) [1]: high pesticidal efficacy | pesticidal efficacy against brown planthopper (Nilaparvata lugens) [2, 5]: high pesticidal efficacy | pesticidal efficacy against brown planthopper (Nilaparvata lugens) [2, 6]: high pesticidal efficacy | pesticidal efficacy against brown planthopper (Nilaparvata lugens) [2, 7]: high pesticidal efficacy | pesticidal efficacy against brown planthopper (Nilaparvata lugens) [2, 8]: high pesticidal efficacy | pesticidal efficacy against brown planthopper (Nilaparvata lugens) [2, 9]: high pesticidal efficacy

COc1cnccc1-c1nc2cc3c(cc2o1)C(F)(F)OC3(F)F [Compound 88, 5,5,7,7-tetrafluoro-2-(3-methoxypyridin-4-yl)-5,7-dihydro-furo[3′,4′:4,5]benzo[1,2-d]oxazole]
pesticidal efficacy against cotton aphid (Aphis gossypii) [1]: high pesticidal efficacy

CCc1cnccc1-c1nc2cc(OC(F)(F)F)ccc2o1 [Compound 109, 2-(3-ethylpyridin-4-yl)-5-(trifluoromethoxy)benzoxazole]
pesticidal efficacy against brown planthopper (Nilaparvata lugens) [2, 5]: high pesticidal efficacy | pesticidal efficacy against brown planthopper (Nilaparvata lugens) [2, 6]: high pesticidal efficacy | pesticidal efficacy against brown planthopper (Nilaparvata lugens) [2, 7]: high pesticidal efficacy | pesticidal efficacy against brown planthopper (Nilaparvata lugens) [2, 8]: high pesticidal efficacy | pesticidal efficacy against brown planthopper (Nilaparvata lugens) [2, 9]: high pesticidal efficacy

FC(F)COc1cnccc1-c1nc2cc(C(F)(F)F)ccc2o1 [Compound 110, 2-[3-(2,2-difluoroethoxy)pyridin-4-yl]-5-(trifluoromethyl)benzoxazole]
pesticidal efficacy against cotton aphid (Aphis gossypii) [1]: high pesticidal efficacy

FC(F)(F)c1ccc2oc(-c3ccncc3-c3cccnc3)nc2c1 [Compound 128, 4-(5-trifluoromethyl-benzoxazole-2-yl)-[3,3′]bipyridinyl]
pesticidal efficacy against cotton aphid (Aphis gossypii) [1]: high pesticidal efficacy | pesticidal efficacy against brown planthopper (Nilaparvata lugens) [2, 5]: high pesticidal efficacy | pesticidal efficacy against brown planthopper (Nilaparvata lugens) [2, 6]: high pesticidal efficacy | pesticidal efficacy against brown planthopper (Nilaparvata lugens) [2, 7]: high pesticidal efficacy | pesticidal efficacy against brown planthopper (Nilaparvata lugens) [2, 8]: high pesticidal efficacy | pesticidal efficacy against brown planthopper (Nilaparvata lugens) [2, 9]: high pesticidal efficacy

CC(C)N(C)c1cnccc1-c1nc2cc(C(F)(F)F)ccc2o1 [Compound 132, isopropyl-methyl-{4-[5-(trifluoromethyl)benzoxazole-2-yl]pyridin-3-yl}amine]
pesticidal efficacy against cotton aphid (Aphis gossypii) [1]: high pesticidal efficacy

CCS(=O)(=O)c1cnccc1-c1nc2cc(C(F)(F)F)ccc2o1 [Compound 133, 2-[3-(ethanesulfonyl)pyridin-4-yl]-5-(trifluoromethyl)benzoxazole]
pesticidal efficacy against cotton aphid (Aphis gossypii) [1]: high pesticidal efficacy

FC(F)(F)c1cnc2oc(-c3ccncc3)nc2c1 [Compound 138, 2-pyridin-4-yl-6-(trifluoromethyl)oxazolo[5,4-b]pyridine]
pesticidal efficacy against cotton aphid (Aphis gossypii) [1]: high pesticidal efficacy

FC(F)(F)c1cnc2oc(-c3ccncc3Cl)nc2c1 [Compound 139, 2-(3-chloropyridin-4-yl)-6-(trifluoromethyl)oxazolo[5,4-b]pyridine]
pesticidal efficacy against brown planthopper (Nilaparvata lugens) [2, 5]: high pesticidal efficacy | pesticidal efficacy against brown planthopper (Nilaparvata lugens) [2, 6]: high pesticidal efficacy | pesticidal efficacy against brown planthopper (Nilaparvata lugens) [2, 7]: high pesticidal efficacy | pesticidal efficacy against brown planthopper (Nilaparvata lugens) [2, 8]: high pesticidal efficacy | pesticidal efficacy against brown planthopper (Nilaparvata lugens) [2, 9]: high pesticidal efficacy

[O-][n+]1ccc(-c2nc3cc(C(F)(F)F)cnc3o2)c(Cl)c1 [Compound 140, 2-(3-chloro-1-oxypyridin-4-yl)-6-(trifluoromethyl)oxazolo[5,4-b]pyridine]
pesticidal efficacy against cotton aphid (Aphis gossypii) [1]: high pesticidal efficacy

CCc1cnccc1-c1nc2cc(C(F)(F)F)cnc2o1 [Compound 143, 2-(3-ethylpyridin-4-yl)-6-(trifluoromethyl)oxazolo[5,4-b]pyridine]
pesticidal efficacy against cotton aphid (Aphis gossypii) [1]: high pesticidal efficacy | pesticidal efficacy against brown planthopper (Nilaparvata lugens) [2, 5]: high pesticidal efficacy | pesticidal efficacy against brown planthopper (Nilaparvata lugens) [2, 6]: high pesticidal efficacy | pesticidal efficacy against brown planthopper (Nilaparvata lugens) [2, 7]: high pesticidal efficacy | pesticidal efficacy against brown planthopper (Nilaparvata lugens) [2, 8]: high pesticidal efficacy | pesticidal efficacy against brown planthopper (Nilaparvata lugens) [2, 9]: high pesticidal efficacy

FC(F)(F)c1cnc2oc(-c3ccncc3C(F)(F)F)nc2c1 [Compound 144, 6-trifluoromethyl-2-[3-(trifluoromethyl)pyridin-4-yl]-oxazolo[5,4-b]pyridine]
pesticidal efficacy against cotton aphid (Aphis gossypii) [1]: high pesticidal efficacy

CSc1cnccc1-c1nc2cc(C(F)(F)F)cnc2o1 [Compound 146, 2-(3-methylthiopyridin-4-yl)-6-(trifluoromethyl)oxazolo[5,4-b]pyridine]
pesticidal efficacy against cotton aphid (Aphis gossypii) [1]: high pesticidal efficacy | pesticidal efficacy against brown planthopper (Nilaparvata lugens) [2, 5]: high pesticidal efficacy | pesticidal efficacy against brown planthopper (Nilaparvata lugens) [2, 6]: high pesticidal efficacy | pesticidal efficacy against brown planthopper (Nilaparvata lugens) [2, 7]: high pesticidal efficacy | pesticidal efficacy against brown planthopper (Nilaparvata lugens) [2, 8]: high pesticidal efficacy | pesticidal efficacy against brown planthopper (Nilaparvata lugens) [2, 9]: high pesticidal efficacy

CCS(=O)(=O)c1cnccc1-c1nc2cc(C(F)(F)F)cnc2o1 [Compound 150, 2-[3-(ethanesulfonyl)pyridin-4-yl]-6-(trifluoromethyl)oxazolo[5,4-b]pyridine]
pesticidal efficacy against cotton aphid (Aphis gossypii) [1]: high pesticidal efficacy
